Experimental data: ChEMBL document CHEMBL4665642, “Anticancer profile of newly synthesized BRAF inhibitors possess 5-(pyrimidin-4-yl)imidazo[2,1-b]thiazole scaffold” (Bioorg Med Chem, 2019)

How the values were obtained:
[1] = system: U-251; experiment: Cytotoxicity against human U-251 cells assessed as cell viability at 10 uM incubated for 48 hrs by sulforhodamine B assay relative to control; format: functional; settings: read-out: Activity
[2] = molecular target: RAF proto-oncogene serine/threonine-protein kinase (Homo sapiens, UniProt P04049); experiment: Inhibition of human CRAF using MEK1 as substrate by [gamma-33P]-ATP assay
RAF proto-oncogene serine/threonine-protein kinase, sequence (P04049 whole entry): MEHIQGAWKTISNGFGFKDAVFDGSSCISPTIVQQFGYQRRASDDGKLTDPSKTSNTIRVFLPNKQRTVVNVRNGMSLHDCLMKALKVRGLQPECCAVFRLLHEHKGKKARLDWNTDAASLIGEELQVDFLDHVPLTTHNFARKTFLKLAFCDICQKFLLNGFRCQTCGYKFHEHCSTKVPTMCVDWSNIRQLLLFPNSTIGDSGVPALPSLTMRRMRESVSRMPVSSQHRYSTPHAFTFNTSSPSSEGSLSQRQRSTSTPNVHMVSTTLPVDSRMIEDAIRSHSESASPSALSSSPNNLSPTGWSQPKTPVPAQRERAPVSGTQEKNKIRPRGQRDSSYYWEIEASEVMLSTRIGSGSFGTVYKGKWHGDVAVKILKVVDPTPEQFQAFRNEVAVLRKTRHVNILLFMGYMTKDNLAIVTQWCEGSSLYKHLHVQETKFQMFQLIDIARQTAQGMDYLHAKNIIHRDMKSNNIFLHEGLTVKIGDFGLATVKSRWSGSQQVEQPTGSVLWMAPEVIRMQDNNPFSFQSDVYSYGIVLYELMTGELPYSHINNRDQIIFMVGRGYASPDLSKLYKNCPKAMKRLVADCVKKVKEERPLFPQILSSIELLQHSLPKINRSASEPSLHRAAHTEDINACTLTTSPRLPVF

[3] = system: MOLT-4; experiment: Cytotoxicity against human MOLT-4 cells assessed as cell viability at 10 uM incubated for 48 hrs by sulforhodamine B assay relative to control; format: functional; settings: read-out: Activity
[4] = system: UACC-62; experiment: Cytotoxicity against human UACC-62 cells assessed as cell viability at 10 uM incubated for 48 hrs by sulforhodamine B assay relative to control; format: functional; settings: read-out: Activity
[5] = system: HCT-116; experiment: Cytotoxicity against human HCT-116 cells assessed as cell viability at 10 uM incubated for 48 hrs by sulforhodamine B assay relative to control; format: functional; settings: read-out: Activity
[6] = system: NCI-H522; experiment: Cytotoxicity against human NCI-H522 cells assessed as cell viability at 10 uM incubated for 48 hrs by sulforhodamine B assay relative to control; format: functional; settings: read-out: Activity
[7] = system: UO-31; experiment: Cytotoxicity against human UO-31 cells assessed as cell viability at 10 uM incubated for 48 hrs by sulforhodamine B assay relative to control; format: functional; settings: read-out: Activity
[8] = system: HCC 2998; experiment: Cytotoxicity against human HCC 2998 cells assessed as cell viability at 10 uM incubated for 48 hrs by sulforhodamine B assay relative to control; format: functional; settings: read-out: Activity
[9] = system: SW-620; experiment: Cytotoxicity against human SW-620 cells assessed as cell viability at 10 uM incubated for 48 hrs by sulforhodamine B assay relative to control; format: functional; settings: read-out: Activity
[10] = system: UACC-257; experiment: Cytotoxicity against human UACC-257 cells assessed as cell viability at 10 uM incubated for 48 hrs by sulforhodamine B assay relative to control; format: functional; settings: read-out: Activity
[11] = system: A-375; experiment: Cytotoxicity against human A-375 cells assessed as reduction in cell viability by MTT assay; format: functional, cell-based
[12] = molecular target: Serine/threonine-protein kinase B-raf (Homo sapiens, UniProt P15056); experiment: Inhibition of human BRAF using MEK1 as substrate by […] assay
Serine/threonine-protein kinase B-raf (Homo sapiens, UniProt P15056), sequence (P15056 whole entry): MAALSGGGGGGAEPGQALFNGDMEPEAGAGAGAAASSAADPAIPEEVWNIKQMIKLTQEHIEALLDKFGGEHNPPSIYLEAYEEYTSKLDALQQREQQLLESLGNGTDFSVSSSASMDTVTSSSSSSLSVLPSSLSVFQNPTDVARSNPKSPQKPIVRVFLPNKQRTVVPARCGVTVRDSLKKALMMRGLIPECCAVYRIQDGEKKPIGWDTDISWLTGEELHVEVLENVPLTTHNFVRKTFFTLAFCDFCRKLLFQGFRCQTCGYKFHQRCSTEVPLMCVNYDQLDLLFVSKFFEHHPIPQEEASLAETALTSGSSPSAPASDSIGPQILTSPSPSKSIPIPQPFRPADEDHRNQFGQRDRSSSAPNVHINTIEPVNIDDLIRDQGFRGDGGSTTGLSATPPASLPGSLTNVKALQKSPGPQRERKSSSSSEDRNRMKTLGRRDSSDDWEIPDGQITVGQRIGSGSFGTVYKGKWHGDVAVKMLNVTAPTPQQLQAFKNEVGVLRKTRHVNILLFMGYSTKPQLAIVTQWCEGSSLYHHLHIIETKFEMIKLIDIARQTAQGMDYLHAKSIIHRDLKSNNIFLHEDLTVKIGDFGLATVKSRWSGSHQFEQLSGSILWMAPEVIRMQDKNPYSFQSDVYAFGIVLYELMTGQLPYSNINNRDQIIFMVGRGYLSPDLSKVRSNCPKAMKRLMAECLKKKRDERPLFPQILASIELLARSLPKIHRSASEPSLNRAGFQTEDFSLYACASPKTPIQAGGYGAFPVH

[13] = system: T47D; experiment: Cytotoxicity against human T47D cells assessed as cell viability at 10 uM incubated for 48 hrs by sulforhodamine B assay relative to control; format: functional; settings: read-out: Activity
[14] = system: EKVX; experiment: Cytotoxicity against human EKVX cells assessed as cell viability at 10 uM incubated for 48 hrs by sulforhodamine B assay relative to control; format: functional; settings: read-out: Activity
[15] = system: Malme-3M; experiment: Cytotoxicity against human Malme-3M cells assessed as cell viability at 10 uM incubated for 48 hrs by sulforhodamine B assay relative to control; format: functional; settings: read-out: Activity
[16] = system: SK-MEL-28; experiment: Cytotoxicity against human SK-MEL-28 cells assessed as reduction in cell viability by MTT assay; format: functional, cell-based
[17] = system: SK-MEL-2; experiment: Cytotoxicity against human SK-MEL-2 cells assessed as cell viability at 10 uM incubated for 48 hrs by sulforhodamine B assay relative to control; format: functional; settings: read-out: Activity
[18] = system: OVCAR-5; experiment: Cytotoxicity against human OVCAR-5 cells assessed as cell viability at 10 uM incubated for 48 hrs by sulforhodamine B assay relative to control; format: functional; settings: read-out: Activity
[19] = system: Hs-578T; experiment: Cytotoxicity against human HS-578T cells assessed as cell viability at 10 uM incubated for 48 hrs by sulforhodamine B assay relative to control; format: functional; settings: read-out: Activity
[20] = molecular target: Serine/threonine-protein kinase B-raf (Homo sapiens, UniProt P15056, V600E); experiment: Inhibition of human BRAF V600E mutant using MEK1 as substrate by […] assay
Serine/threonine-protein kinase B-raf (Homo sapiens, UniProt P15056, V600E), sequence (P15056 2-766 V600E limits assumed): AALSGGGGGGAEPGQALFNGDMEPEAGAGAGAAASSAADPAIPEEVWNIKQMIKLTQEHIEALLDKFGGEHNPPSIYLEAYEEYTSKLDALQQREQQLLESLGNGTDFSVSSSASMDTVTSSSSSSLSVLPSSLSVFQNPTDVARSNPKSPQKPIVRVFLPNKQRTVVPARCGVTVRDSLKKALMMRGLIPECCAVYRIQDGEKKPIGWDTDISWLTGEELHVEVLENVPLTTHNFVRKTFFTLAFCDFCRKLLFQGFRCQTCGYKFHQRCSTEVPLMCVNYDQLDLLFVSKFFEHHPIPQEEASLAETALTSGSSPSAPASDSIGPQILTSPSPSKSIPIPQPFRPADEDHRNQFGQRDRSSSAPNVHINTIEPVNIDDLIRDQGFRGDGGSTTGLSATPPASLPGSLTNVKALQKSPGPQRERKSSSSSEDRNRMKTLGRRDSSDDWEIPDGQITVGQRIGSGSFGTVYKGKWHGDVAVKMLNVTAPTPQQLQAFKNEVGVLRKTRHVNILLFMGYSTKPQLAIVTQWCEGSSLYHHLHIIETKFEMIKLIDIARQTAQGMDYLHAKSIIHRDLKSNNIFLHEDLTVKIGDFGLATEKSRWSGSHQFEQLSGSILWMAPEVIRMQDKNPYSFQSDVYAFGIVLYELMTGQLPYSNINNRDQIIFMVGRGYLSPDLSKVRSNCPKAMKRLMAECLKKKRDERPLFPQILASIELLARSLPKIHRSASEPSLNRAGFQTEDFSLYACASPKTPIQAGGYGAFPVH

[21] = system: SF-539; experiment: Cytotoxicity against human SF-539 cells assessed as cell viability at 10 uM incubated for 48 hrs by sulforhodamine B assay relative to control; format: functional; settings: read-out: Activity
[22] = system: SK-MEL-5; experiment: Cytotoxicity against human SK-MEL-5 cells assessed as cell viability at 10 uM incubated for 48 hrs by sulforhodamine B assay relative to control; format: functional; settings: read-out: Activity
[23] = system: L132; experiment: Cytotoxicity against human L132 cells assessed as reduction in cell viability by MTT assay; format: cell-based
[24] = system: RXF 393; experiment: Cytotoxicity against human RXF 393 cells assessed as cell viability at 10 uM incubated for 48 hrs by sulforhodamine B assay relative to control; format: functional; settings: read-out: Activity

| Structure (SMILES) | viability at 10 µM [1] [%] | IC50 [2] [µM] | viability at 10 µM [3] [%] | viability at 10 µM [4] [%] | viability at 10 µM [5] [%] | viability at 10 µM [6] [%] | viability at 10 µM [7] [%] | viability at 10 µM [8] [%] | viability at 10 µM [9] [%] | viability at 10 µM [10] [%] | IC50 [11] [µM] | IC50 [12] [µM] | viability at 10 µM [13] [%] | viability at 10 µM [14] [%] | viability at 10 µM [15] [%] | IC50 [16] [µM] | viability at 10 µM [17] [%] | viability at 10 µM [18] [%] | viability at 10 µM [19] [%] | IC50 [20] [µM] | also measured |
| --- | --- | --- | --- | --- | --- | --- | --- | --- | --- | --- | --- | --- | --- | --- | --- | --- | --- | --- | --- | --- | --- |
| O=C(NCCNc1nccc(-c2c(-c3cccc(F)c3)nc3sccn23)n1)c1c(F)cccc1F | 49.7 | 0.102 | 35.9 | 10.3 | 24.9 | 42.8 | 20.8 | 70.4 | 47.3 | 54.7 | 2.7 | 0.0953 | 26.7 | 61.2 | 31.6 | 11.4 | 62.4 | 72.7 | 53.3 | 0.0331 | viability at 10 µM [21]: 65.9%; viability at 10 µM [22]: 17.1%; IC50 [23]: 198 µM; viability at 10 µM [24]: 57.1% |
| O=C(NCCNc1nccc(-c2c(-c3cccc(F)c3)nc3sccn23)n1)c1ccccc1 | 59.4 | 0.312 | 46.5 | 11.2 | 25.6 | 57.9 | 22.8 | 73.8 | 52.3 | 63.1 | 5.06 | 0.162 | 34.5 | 54.4 | 23.7 | 17 | 51.4 | 79.9 | 64.7 | 0.037 | viability at 10 µM [21]: 81.2%; viability at 10 µM [22]: 25.6%; IC50 [23]: 200 µM; viability at 10 µM [24]: 60.6% |
